In PubChem BioAssay (NCI) one finds TGI data, which are given here for 7 compounds.

Some test systems named below: LXFL 529 NSCLC; SNB-78 CNS; UACC-257 melanoma; MDA-MB-231 breast; DMS 114 small cell lung; HOP-18 NSCLC; P388 leukemia; P388/ADR leukemia; SN12K1 renal; XF 498 CNS.
Common to all, as to assay: NCI tumour cell line growth inhibition, 48 h

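Values below derive from 48-hour exposures of cells grown in 96-well plates, with endpoints linearly interpolated between the two concentrations bracketing the appropriate inhibition level. TGI: total growth inhibition.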

In the case of `COc1cccc(NC(=O)C(=O)C(C(=O)c2ccccc2F)C2OC(=O)c3ccccc32)c1` (configuration not stated), the TGI in the assay with LXFL 529 NSCLC, with SNB-78 CNS and in the assay with UACC-257 melanoma was above 100 µM each time.
As to `COC(=O)C1=C(OC(=O)/C=C/c2ccc(Cl)cc2)C(C(=O)OC)[C@@]2(O)[C@@H](C(=O)OC)[C@H](C)C[C@@H]1[C@@H]2C(=O)OC` (some centres not stated), the TGI with MDA-MB-231 breast is 64.9 µM; with UACC-257 melanoma, above 100 µM.
Take `COC1(O)c2cccc(Cl)c2C(=O)N1C1(C(N)=O)CCCCC1` (configuration not stated): the TGI in the assay on DMS 114 small cell lung, in the assay with HOP-18 NSCLC, in the assay with P388 leukemia, in the assay on P388/ADR leukemia, in the assay on SN12K1 renal and in the assay on SNB-78 CNS was above 100 µM each time. The TGI with UACC-257 melanoma and in the assay on XF 498 CNS was above 100 µM throughout.
On to `O=C(O)C12CCCCC1CCCC2` (configuration not stated), for which the TGI in the assay on DMS 114 small cell lung, with HOP-18 NSCLC, in the assay with LXFL 529 NSCLC and with XF 498 CNS was above 100 µM throughout.
For `NC12CCC(CC1=O)C2` (configuration not stated), the TGI in the assay on MDA-MB-231 breast and in the assay on UACC-257 melanoma was above 100 µM throughout.
For `O=C1C=CC(=O)c2c1ccc1c3ccccc3n(-c3ccccc3[N+](=O)[O-])c21`, the TGI with MDA-MB-231 breast amounted to 7.88 µM; with UACC-257 melanoma, 13.1 µM.
In turn, `COc1cc2c(cc1OC)C(=O)/C(=C/c1cc(OC)c(OC)c(OC)c1)C2` returned a TGI in the assay on MDA-MB-231 breast above 100 µM.
